In ChEMBL document CHEMBL4311997, “Discovery of a potent histone deacetylase (HDAC) 3/6 selective dual inhibitor” (Eur J Med Chem, 2019):
Calls of active or inactive are those of the source. The calls are words filed in the database; no cut-off is given here.

What was measured:
[1] = biological target: Histone deacetylase 7 (Homo sapiens) (UniProt Q8WUI4); assay: Inhibition of human HDAC7 at 10 uM using Acetyl-Lys (trifluoroacetyl)-AMC) as substrate incubated for 2 hrs by fluorescence assay
Histone deacetylase 2 = Histone deacetylase 2 (Homo sapiens, UniProt Q92769); assay: Inhibition of human HDAC2 using Arg-His-Lys-Lys (Ac) as substrate incubated for 2 hrs by fluorescence assay
Chain of Histone deacetylase 2 (Q92769 whole entry): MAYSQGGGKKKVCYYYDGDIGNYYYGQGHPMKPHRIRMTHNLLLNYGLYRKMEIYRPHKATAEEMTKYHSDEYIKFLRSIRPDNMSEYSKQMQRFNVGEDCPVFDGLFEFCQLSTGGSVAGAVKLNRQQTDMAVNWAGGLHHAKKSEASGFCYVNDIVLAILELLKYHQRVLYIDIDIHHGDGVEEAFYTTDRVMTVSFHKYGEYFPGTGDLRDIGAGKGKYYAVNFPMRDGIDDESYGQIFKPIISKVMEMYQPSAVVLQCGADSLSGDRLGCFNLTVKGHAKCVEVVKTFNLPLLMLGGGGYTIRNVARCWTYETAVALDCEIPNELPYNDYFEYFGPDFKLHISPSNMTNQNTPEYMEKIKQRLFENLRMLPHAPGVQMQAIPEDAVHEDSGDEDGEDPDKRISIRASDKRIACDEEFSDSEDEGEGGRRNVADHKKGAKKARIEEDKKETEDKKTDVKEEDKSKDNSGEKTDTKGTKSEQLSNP

[2] = biological target: T1, Protein deacetylase HDAC6 (Homo sapiens, UniProt Q9UBN7); assay: Inhibition of human HDAC6 using Arg-His-Lys-Lys (Ac) as substrate incubated for 2 hrs by fluorescence assay
T1 sequence (Q9UBN7 whole entry): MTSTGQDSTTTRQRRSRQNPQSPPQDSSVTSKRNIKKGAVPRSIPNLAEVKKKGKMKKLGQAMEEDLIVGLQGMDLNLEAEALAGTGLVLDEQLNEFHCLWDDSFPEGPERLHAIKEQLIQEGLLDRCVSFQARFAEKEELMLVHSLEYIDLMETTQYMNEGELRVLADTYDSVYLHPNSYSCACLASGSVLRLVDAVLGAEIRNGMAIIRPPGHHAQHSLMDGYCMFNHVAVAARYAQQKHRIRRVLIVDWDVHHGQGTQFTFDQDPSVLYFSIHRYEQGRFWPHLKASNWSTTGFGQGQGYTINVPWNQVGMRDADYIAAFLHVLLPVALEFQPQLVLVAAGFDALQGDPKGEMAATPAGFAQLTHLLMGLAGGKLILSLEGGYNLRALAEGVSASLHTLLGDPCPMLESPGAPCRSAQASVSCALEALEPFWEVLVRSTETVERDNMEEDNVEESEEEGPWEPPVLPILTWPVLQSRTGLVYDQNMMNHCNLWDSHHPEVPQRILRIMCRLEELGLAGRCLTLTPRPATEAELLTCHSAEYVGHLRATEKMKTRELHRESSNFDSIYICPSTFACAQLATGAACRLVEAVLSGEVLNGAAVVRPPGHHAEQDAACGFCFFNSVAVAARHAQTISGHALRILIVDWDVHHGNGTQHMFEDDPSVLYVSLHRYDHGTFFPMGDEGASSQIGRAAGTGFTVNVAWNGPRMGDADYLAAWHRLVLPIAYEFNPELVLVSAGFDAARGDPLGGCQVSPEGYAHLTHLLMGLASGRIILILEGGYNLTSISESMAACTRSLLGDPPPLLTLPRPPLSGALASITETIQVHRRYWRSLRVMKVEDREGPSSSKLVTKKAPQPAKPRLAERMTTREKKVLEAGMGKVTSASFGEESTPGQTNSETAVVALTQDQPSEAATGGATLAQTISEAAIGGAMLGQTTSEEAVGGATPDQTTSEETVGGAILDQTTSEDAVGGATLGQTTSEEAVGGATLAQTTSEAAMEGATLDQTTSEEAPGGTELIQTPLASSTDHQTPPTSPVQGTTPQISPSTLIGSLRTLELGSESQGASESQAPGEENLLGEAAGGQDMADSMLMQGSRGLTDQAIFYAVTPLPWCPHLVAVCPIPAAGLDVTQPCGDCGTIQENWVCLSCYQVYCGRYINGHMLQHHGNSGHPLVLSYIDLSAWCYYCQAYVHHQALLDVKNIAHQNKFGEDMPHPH

MDA-MB-231 [3] = assay: Induction of apoptosis in human MDA-MB-231 cells assessed as viable cells at 6 uM incubated for 48 hrs by Annexin V-FITC/PI staining by flow cytometric analysis (reference value: 77%); assay type: functional; conditions: MDA-MB-231, 48 h, read-out: Activity
MDA-MB-231 [4] = assay: Induction of apoptosis in human MDA-MB-231 cells assessed as early apoptotic cells at 9 uM incubated for 48 hrs by Annexin V-FITC/PI staining by flow cytometric analysis (reference value: 5%); assay type: functional
MDA-MB-231 [5] = assay: Induction of apoptosis in human MDA-MB-231 cells assessed as late apoptotic cells at 9 uM incubated for 48 hrs by Annexin V-FITC/PI staining by flow cytometric analysis (reference value: 3%); assay type: functional
[6] = biological target: Protein deacetylase HDAC6 (Homo sapiens) (UniProt Q9UBN7); assay: Inhibition of HDAC6 in human KMS-12-BM cells assessed as increase in Ac-Tubulin level at 2.5 to 10 uM incubated for 24 hrs by Western blot analysis; assay type: cell-based
[7] = Effective permeability of the compound at pH 7.4 measured after 16 hrs by PAMPA assay; assay type: ADME; conditions: read-out: Peff
[8] = Therapeutic Index, ratio of EC50 for mouse TAMH cells to EC50 for human MDA-MB-231 cells; assay type: toxicity; conditions: TAMH cells versus MDA-MB-231 cells, read-out: Ratio EC50
[9] = Genotoxicity in Salmonella typhimurium TA98 in presence of S9 fraction incubated for 48 hrs by Ames test relative to control; assay type: toxicity, subcellular; conditions: salmonella enterica subsp. enterica serovar typhimurium, s9, 48 h
[10] = Cytotoxicity against human AC10 cells incubated for 24 hrs by CellTiter-Glo Cell Viability Assay; assay type: cell-based; conditions: AC10, 24 h
[11] = Half life in male rat liver microsomes at 3 uM preincubated for 5 mins followed by NADPH addition and measured up to 45 mins by LC-MS/MS analysis; assay type: ADME, Microsome
Plasmodium falciparum = assay: microbe, parasite or virus in culture; assay type: functional, organism-based; conditions: 3D7, 48 h
Description: Antimalarial activity against ring stage Plasmodium falciparum 3D7 incubated for 48 hrs by Hoechst 33342 staining based fluorescence based assay

Chain of Histone deacetylase 7 (Homo sapiens) (Q8WUI4 whole entry): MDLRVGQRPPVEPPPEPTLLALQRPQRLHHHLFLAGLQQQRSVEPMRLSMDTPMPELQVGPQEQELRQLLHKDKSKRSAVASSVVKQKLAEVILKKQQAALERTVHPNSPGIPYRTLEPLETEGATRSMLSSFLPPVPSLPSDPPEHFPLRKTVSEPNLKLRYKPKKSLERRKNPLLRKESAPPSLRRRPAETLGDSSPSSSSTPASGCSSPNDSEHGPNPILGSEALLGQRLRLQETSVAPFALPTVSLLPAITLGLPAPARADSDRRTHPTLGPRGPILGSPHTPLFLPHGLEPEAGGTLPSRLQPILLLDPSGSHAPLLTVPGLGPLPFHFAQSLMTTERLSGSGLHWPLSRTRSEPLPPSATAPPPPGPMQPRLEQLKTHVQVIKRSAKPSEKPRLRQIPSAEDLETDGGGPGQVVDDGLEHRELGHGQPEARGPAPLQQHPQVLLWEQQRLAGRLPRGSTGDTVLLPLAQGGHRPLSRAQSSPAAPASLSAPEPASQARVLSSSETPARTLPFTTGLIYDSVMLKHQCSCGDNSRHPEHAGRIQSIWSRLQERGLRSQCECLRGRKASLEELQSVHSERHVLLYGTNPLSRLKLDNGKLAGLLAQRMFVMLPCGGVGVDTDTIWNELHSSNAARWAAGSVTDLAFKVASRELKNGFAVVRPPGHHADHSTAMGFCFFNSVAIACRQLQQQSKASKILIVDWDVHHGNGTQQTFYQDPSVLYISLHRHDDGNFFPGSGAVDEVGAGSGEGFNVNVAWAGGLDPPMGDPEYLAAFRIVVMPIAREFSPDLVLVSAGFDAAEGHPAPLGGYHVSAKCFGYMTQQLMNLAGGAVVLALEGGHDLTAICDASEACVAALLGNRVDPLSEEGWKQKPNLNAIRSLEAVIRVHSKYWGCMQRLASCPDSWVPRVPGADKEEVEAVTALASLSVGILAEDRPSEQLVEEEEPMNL

- inhibition [1]: inactive
- IC50 (Histone deacetylase 2): 1130 nM
- IC50 [2]: 2.57 nM
- inhibition [6]: Active
- Papp at 16 h [7]: 7.9 ×10⁻⁶ cm/s
- half-life at 3 µM [11]: 2.38 h
- IC50 (Plasmodium falciparum): 145 nM
Compound: COc1ccc(CN2CCC(Nc3nc(Nc4ccc(NC(=O)CCCCCCC(=O)NO)cc4)nc4cc(OC)c(OC)cc34)CC2)cc1
- viability at 6 µM (MDA-MB-231 [3]): 52%
- Activity (MDA-MB-231 [4]): 24%
- Activity (MDA-MB-231 [5]): 11%
- selectivity ratio [8]: 5
- Activity [9]: Non-Toxic
- EC50 [10]: 94000 nM
